The subject of test [1] is different cancer cell lines. Particulars: 200 μM, MTT, Table 1. The method, then: MTT assay was carried out to monitor the viability of the cells. Values obtained for the cells without any treatments were kept as 100%.
Different cancer cell lines, MCF-7 (breast cancer), H1299 (lung cancer), HepG2 (liver cancer), DU145 (prostate cancer), Caco2 (colon cancer) and AGS (gastric cancer) were obtained from American Type Culture Collection (ATCC). Normal breast epithelial cell line (MCF-10A) was used for comparison. The cells were maintained in the growth medium as described by ATCC. Approximately 10,000 cells were seeded onto a 96-well plate. Modified glucose compounds were added to the cells after 24 h of seeding. The cells were further cultured in the presence of the modified glucose compounds for up to 7 days. The medium was changed everyday along with the specified concentration of modified glucose.
MTT assay was performed using the TACS™ MTT cell proliferation assay kit (Trevigen Inc, Md., USA). Briefly, after treatment of cells, 10 μl of MTT reagent was added and incubated at 37° C. for 4 h. The cells were lysed using detergent for 4 h at room temperature. The absorbance was measured in a standard plate reader at 570 nm.

The next test has as its system H1299. To be noted: H1299, 200 μM, 3 days.
The next test deals with DU145. To be noted: DU145, 200 μM, 3 days.
The target of a further test is T1, GLUT1 (Homo sapiens, UniProt P11166).
T1 construct: host or cells: MCF-7 human breast cancer cells
T1 sequence (P11166 1-492): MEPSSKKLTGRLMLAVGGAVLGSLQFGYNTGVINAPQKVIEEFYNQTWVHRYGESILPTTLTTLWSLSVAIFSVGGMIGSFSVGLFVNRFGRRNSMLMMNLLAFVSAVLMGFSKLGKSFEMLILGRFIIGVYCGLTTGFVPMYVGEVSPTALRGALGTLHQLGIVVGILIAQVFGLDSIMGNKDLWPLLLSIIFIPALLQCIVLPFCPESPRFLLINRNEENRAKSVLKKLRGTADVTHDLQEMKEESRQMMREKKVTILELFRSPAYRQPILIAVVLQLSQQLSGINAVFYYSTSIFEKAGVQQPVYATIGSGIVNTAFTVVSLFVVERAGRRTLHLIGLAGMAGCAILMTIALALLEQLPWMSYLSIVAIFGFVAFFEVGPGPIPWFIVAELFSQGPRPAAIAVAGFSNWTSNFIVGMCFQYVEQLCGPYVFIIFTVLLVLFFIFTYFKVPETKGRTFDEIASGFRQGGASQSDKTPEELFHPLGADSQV
Briefly: Glucose competition binding assay with GPB fluorescence. Particulars: MCF-7, 200 μM GPB, glucose 10-40 mM, 30 min, 37° C. How it is done:
FIG. 6: Competition assay. […] The cells were incubated for 30 min at 37° C. The cells were washed with PBS, and the total intensity was measured using a plate reader.
FIG. 10: Binding of GBP to GLUT1. […] After 30 minutes the fluorescence intensity was measured using a plate reader.
The medium was removed and the cells were washed briefly with PBS twice. The fluorescence intensity was measured with an excitation of 488 nm and an emission of 522 nm. The fluorescence intensity was normalized by that of the control cells.
A glucose competition assay was carried out to confirm that the modified glucose-PEG is binding to the GLUT1 receptors. Increasing concentrations of un-modified glucose were used. […] After 30 minutes the fluorescence intensity was measured using a plate reader.

Test [2] concerns MCF-7 cells. In words: Fluorescence imaging of cells labeled with GPB. The format is cell-based, human. Particulars: MCF-7, live fluorescence imaging after incubation and PBS wash. How it is done: They were washed with PBS before fluorescence imaging. Scale bar=500 μm. The MCF-7 cells were seeded on a 6-well plate at least 24 h prior to imaging. […] The cells were washed with PBS (without calcium and magnesium) thrice. Live imaging was performed with fluorescence microscopy. Metamorph (Molecular Devices, USA) and Image J (freeware from NIH, USA) were used for image capturing and processing.

For test [3], the system named is MCF-7 cells. Briefly: MTT cell viability assay, MCF-7 cells cultured 7 days with modified glucose. Particulars: MCF-7, different concentrations. The method, then: MCF-7 cells were seeded onto 96-well plates at least 24 h prior to the experiment. […] MTT assay was performed to assess the cell viability. […] Cell viability was normalized with that of the control cells. […] The cells were treated as described in FIG. 3, followed by the MTT assay. […] MTT assay was carried out to monitor the viability of the cells. Values obtained for the cells without any treatments were kept as 100%. Different cancer cell lines, MCF-7 (breast cancer), H1299 (lung cancer), HepG2 (liver cancer), DU145 (prostate cancer), Caco2 (colon cancer) and AGS (gastric cancer) were obtained from American Type Culture Collection (ATCC). Normal breast epithelial cell line (MCF-10A) was used for comparison. The cells were maintained in the growth medium as described by ATCC. Approximately 10,000 cells were seeded onto a 96-well plate. Modified glucose compounds were added to the cells after 24 h of seeding. The cells were further cultured in the presence of the modified glucose compounds for up to 7 days. The medium was changed everyday along with the specified concentration of modified glucose. […] MTT assay was performed using the TACS™ MTT cell proliferation assay kit (Trevigen Inc, Md., USA). Briefly, after treatment of cells, 10 μl of MTT reagent was added and incubated at 37° C. for 4 h. […] The absorbance was measured in a standard plate reader at 570 nm.

In the next test the test system is tumor. Particulars: animal studies, supplemental 2-DG; cited from earlier work.
Test [4] concerns SkBr3 (human breast cancer) cell line. Particulars: SkBr3, concentration of 4 mM; cited from earlier work.

Entries after “also recorded” stand apart in the source; their conditions may differ.

Protocol for H1299: Human lung cancer cells (H1299) were treated for 3 days with 200 μM of modified glucose (GBrP). Control cells were prepared without treatment. Total RNA was extracted from the cells and reverse transcribed. A PCR array containing primers to identify the apoptotic pathway was used to identify the apoptosis pathway between control and treated cells in lung cancer cells.
Gene expression analysis was carried out to understand the apoptosis pathway during the modified glucose mediated cell death.

As to glucose-conjugated branched PEG [GBrP], the “inhibition of viability of various different cancer cell lines” value in test [1] is on record as “significantly inhibit the viability”. Further, the “apoptosis pathway gene expression, treated vs control” value in the test on H1299 is “AKT1 and ABL1 were down regulated while APAF1 and TP53BP were upregulated”; in the test on DU145, “AKT1 and ABL1 were down regulated while APAF1 and TP53BP were upregulated”.
For Glucose-PEG-BODIPY [GPB], the “competition of un-modified glucose with GPB binding (fluorescence intensity)” value on GLUT1 is on record as “glucose competed with the GPB in binding to the GLUTs; also recorded: intensity of the fluorescence decreases with the increase in un-modified glucose”. The “localization of fluorescence in cells” value in the test on MCF-7 cells [2] is reported as “localized on the plasma membrane of the cells”. Moreover, the “dose-dependent effect on cell viability” value in the test with MCF-7 cells [3] is given as “gradual dose-dependent decrease in the cell viability”.
Turning to `O=CC[C@@H](O)[C@H](O)[C@H](O)CO` [2-DG, 2-deoxyglucose], the tumor growth result in the test on tumor is listed as “growth of the tumor was inhibited”. The apoptotic cells in test [4] was 50%.

The values above are taken from patent US9051418B2, “Glucose-PEG conjugates for reducing glucose transport into a cell” (Agency for Science, Technology and Research, priority 2008, dated 2015).
